# Test results published in patent US11572402B2, “Method for promoting diversification of antibody variable region” (Chiome Bioscience Inc., priority 2017, dated 2023).
# “Also recorded” adds a separate entry of the source.
# Tested on: hVEGF-A-#33 cell line
# Experiment: Screening for diversification-promoting compounds by FCM (hIgG+_hVEGF-A− population)
# Type: cell-based, chicken
# Conditions: hVEGF-A-#33 cells expressing human IgG, versus negative control CS(−)
# Method: Frozen stocks of the hVEGF-A #33 cell line and the hVEGF-A #44 cell line (3.0×10^6 cells) were each awaken with a CS(-) medium, using a 25 cm^2 Flask (Corning, 430639), and were then cultured in a CO2 incubator (SANYO CO2 Incubator MCO-20AIC, 39.5° C., 5% CO2). On the following day, the cells were seeded on a 6-well dish (Nunc, 140675) to a cell density of 1.0×10^4 cells/mL (wherein the cell concentration and the survival rate were measured using CASY cell counter (Nepa Gene)). The cells were cultured in a CS(+) medium, in the presence or absence of a PI3Kα inhibitor ([…]: 10 μM, PI3Kα Inhibitor 2: 500 nM). Moreover, after the cells had been cultured for 2 days, individual samples were subcultured under the same conditions to result in a cell density of 1.0×10^4 cells/mL. Further, after completion of the culture for 3 days, individual samples were subcultured under the same conditions to result in a cell density of 6.0×10^4 cells/mL, and the culture was continued. After completion of the culture for 2 days (Day 7 of the culture), individual samples were centrifuged to remove a supernatant, and the residue was then suspended in a CS(+) medium supplemented with 1 μM FK-506 (hereinafter referred to as a “CS/FK medium”). The suspension was centrifuged again to remove a supernatant. This washing step was carried out repeatedly twice, and individual samples were then suspended in a CS/FK medium supplemented with AF647-labeled hVEGF-A (10 nM) and 2,000-fold diluted Goat Anti-Human IgG-PE. The light was shielded, and the obtained suspension was then reacted at 4° C. for 30 min. After completion of the staining, the reaction mixture was washed with a CS/FK medium twice, and each sample was then suspended in the CS/FK medium. Thereafter, using FACS Aria Fusion (BD), FCM and single cell sorting was carried out. Dead cells were removed using FSC-SSC plot. A plot, in which the vertical axis indicated AF647 (AF647-labeled hVEGF-A) and the longitudinal axis indicated PE (Goat Anti-Human IgG-PE), was developed, and the percentage of PE+(hIgG+)/AF647-(hVEGF-A-) cells was then calculated. In order to make a comparison regarding the number of cells with improved antigen-binding ability according to Affinity Maturation under individual conditions, Affinity Maturation Gate was established according to the following criteria. First, the plot was converted to a contour plot in FCM analysis, and a trapezoid gate having an inclination that was in parallel with the contour of a population in which the most cells were gathered (hereinafter referred to as a “main population”) was established. […] At that time, the vertex of the trapezoid gate was set to be overlapped with the mean value MFI of the main population, and then, a cell population having low antigen-binding ability and a cell population having a low expression level of antibody were set not to enter the gate. The percentage of clones with improved antigen-binding ability was calculated by counting the number of cells existing in this Affinity Maturation Gate and then dividing the obtained value by the total number of the analyzed cells. […]
smiles,measurement,value
Cc1nc(NC(=O)N2CCC[C@H]2C(N)=O)sc1-c1csc(C(C)(C)C)n1 [A66],percentage of hIgG+_hVEGF-A− cell population (diversification-promoting effect),increased in comparison to the negative control (CS(−)); also recorded: highest diversification-promoting effects
